The source of these data is publication PMC5660193, “The antimalarial activity of the pantothenamide α-PanAm is via inhibition of pantothenate phosphorylation” (Scientific Reports, 2017).

One may read the Ki as a dissociation constant, usually derived from enzyme kinetics or from competition with a known ligand.

Residue numbers refer to the chain shown, from its start.

Common to all, as to type: biochemical
Test [1] concerns the target T1, His6-CAB1 (Saccharomyces cerevisiae, UniProt Q04430).
T1 sequence (Q04430 1-367): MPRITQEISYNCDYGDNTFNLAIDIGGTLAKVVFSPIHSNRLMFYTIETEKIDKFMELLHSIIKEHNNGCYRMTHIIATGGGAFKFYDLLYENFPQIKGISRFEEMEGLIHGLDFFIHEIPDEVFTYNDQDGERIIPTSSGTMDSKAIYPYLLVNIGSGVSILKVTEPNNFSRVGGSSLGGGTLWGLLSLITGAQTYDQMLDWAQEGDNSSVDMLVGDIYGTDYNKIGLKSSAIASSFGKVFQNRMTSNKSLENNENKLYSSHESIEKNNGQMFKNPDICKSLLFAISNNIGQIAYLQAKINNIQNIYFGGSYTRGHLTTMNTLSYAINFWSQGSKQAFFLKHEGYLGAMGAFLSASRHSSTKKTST
Nature of the test: Kinase-Glo luminescent assay. The conditions noted are these: 10 µM compound, 100 µM pantothenate, 100 µM ATP, 10 mM MgCl2, pH 7.4, room temperature.

Test [2] concerns the target T2, Cab1p (yeast PanK) (Saccharomyces cerevisiae, UniProt Q04430).
T2 construct: gene CAB1; native untagged enzyme in cell-free extract of wild-type yeast
T2 sequence (Q04430 1-367): T1 sequence (Q04430 1-367)
Nature of the test: radioactive pantothenate kinase assay, double reciprocal plots. The conditions noted are these: competitive with pantothenate; 2.5 mM ATP, 2.5 mM MgCl2, pH 7.4, 30 °C; enzyme source for Ki not restated (yeast extract as for Km).

For test [3], the target named is T1, His6-CAB1. In words: radioactive pantothenate kinase assay. The conditions noted are these: 50 µM 14C-pantothenate, 2.5 mM ATP, 2.5 mM MgCl2, pH 7.4.
Test [4] has as its target T1, His6-CAB1. Nature of the test: Kinase-Glo ATP depletion and LC-MS of phosphorylated product. Conditions: 10 µM compound, 100 µM ATP, no pantothenate, 10 mM MgCl2, pH 7.4, room temperature. (In general: Kinase-Glo reads ATP consumption through a luciferase reaction.)
For test [5], the target named is T3, His6-CAB1 (Saccharomyces cerevisiae, UniProt Q04430, G351S).
T3 sequence (Q04430 1-367 G351S): T1 sequence (Q04430 1-367) with G351S
In words: radioactive pantothenate kinase assay. Conditions: 50 µM 14C-pantothenate, 2.5 mM ATP, 2.5 mM MgCl2, pH 7.4.

`CSc1cccc(NC(=O)CCc2c(C)nc3c4cccnc4nn3c2C)c1` [NED7, 3-(2,4-dimethylpyrido-[2′,3′:3,4]pyrazolo[1,5-a]pyrimidin-3-yl)-N-(3-(methylthio)phenyl) propanamide]: in test [1], the “inhibition at 10 μM” value is on record as “resulted in increased luciferase activity in the presence of Cab1”.

As for `CC(CNC(=O)[C@H](O)C(C)(C)CO)C(=O)NCCc1ccccc1` (stereo partly drawn) [α-PanAm, (2 R)-2,4-dihydroxy-3,3-dimethyl-N-(2-methyl-3-oxo-3-(phenethylamino)propyl)butanamide], in test [2], the Ki turned out to be 10.1 ± 0.85 µM. Besides, the relative enzyme activity result in test [3] is “PanK activities of purified His6-CAB1 and His6-cab1^G351S mutant proteins were measured”; in test [5], “PanK activities of purified His6-CAB1 and His6-cab1^G351S mutant proteins were measured”. The “Kinase-Glo ATP depletion and LC-MS of phosphorylated product” value in test [4] is “detected the mass of phosphorylated α-PanAm (P-α-PanAm) in the presence of active Cab1”.
